Literature values as cited in patent US20070028930A1, “Active agent and formulations to minimize or alleviate bladder urgency and irritation and/or to enhance sexual function” (Delithe Natural Products Inc., priority 2005, published 2007).

Test system: bladder
Details: 10 mg/kg dose, rats

Compound: CNCC[C@H](Oc1cccc2ccccc12)c1cccs1 [Duloxetine]
- efficacy in in vivo bladder studies: effective
